Assays:
[1] = biological target: T1, RFTS-containing DNMT1 (amino acids 351–1616) (Homo sapiens, UniProt P26358); assay: Compound selectivity, endonuclease-coupled DNA methylation assay; assay type: biochemical; conditions: 20 µM inhibitor, 20 nM methyltransferase, 0.25 mM SAM
T1 construct: RFTS-containing DNMT1, amino acids 351–1616; made in house

[2] = tested on: calf thymus DNA; assay: DNA intercalation assay (ethidium bromide displacement); assay type: binding; conditions: 10 µM compound, 15 µg/ml ctDNA, 1.5 µM ethidium bromide; DMSO 2370 ± 190
Description: DNA intercalation was assessed by examining the ability of the compounds to displace ethidium bromide from calf thymus DNA (ctDNA; Sigma). Duplicate assays (100 µl) were conducted in black 96 well plates and contained 15 µg/ml ctDNA, 1.5 µM ethidium bromide and 10 µM compound in methylation assay buffer. DMSO was used as a negative control and daunorubicin (Sigma) was used as a positive control. Fluorescence was measured using excitation and emission wavelengths of 320 nm and 600 nm, respectively.

[3] = biological target: T2, M.SssI DNMT (Spiroplasma monobiae, UniProt P15840); assay: Compound selectivity, endonuclease-coupled DNA methylation assay; assay type: biochemical, bacterial; conditions: 1.25 h; 20 µM inhibitor, 20 nM methyltransferase, 0.25 mM SAM; read-out: Percent activity, M.SssI DNMT
T2 construct: purchased New England Biolabs
Description: After identifying direct inhibitors of DNMT1 lacking the RFTS domain, inhibitor selectivity was assessed by examining inhibition of RFTS-containing DNMT1 (amino acids 351–1616), CD-DNMT3A/DNMT3L complex, and the bacterial cytosine methyltransferase from M. SssI (New England Biolabs) using the endonuclease-coupled DNA methylation assay. Triplicate assays (100 µl) containing 0.25 mM SAM, 0.2 µM oligonucleotide 8006, 0.8 U GlaI, 20 nM methyltransferase, 20 µM inhibitor and 1% DMSO were conducted in 96 well plates. Following enzyme addition, assay plates were incubated at 37°C for 75 min and fluorescence was measured in a BioTek Neo plate reader. A control containing only GlaI was subtracted from each assay. […] Percent activity was determined by comparing product formation to a DMSO containing control assay.

[4] = tested on: HepG2 cells; set-up: method as in PMID 22939515; conditions: cited from earlier work
[5] = biological target: T3, DNMT1 (amino acids 621–1616) (Homo sapiens, UniProt P26358); assay: Concentration-dependence (IC50), endonuclease-coupled DNA methylation assay; assay type: biochemical; conditions: for IC50: 10 µM SAM, 20 nM oligonucleotide 8006, 2 nM DNMT1, 95% confidence interval in brackets
T3 construct: RFTS-lacking DNMT1, amino acids 621–1616; made in house
Description: IC50 values for each validated direct inhibitor were determined under identical assay conditions (10 µM SAM and 20 nM oligonucleotide 8006) using the endonuclease-coupled DNA methylation assay in triplicate (80 µl) in a 96 well format. Assays contained 0.8 U GlaI, 2 nM DNMT1 (amino acids 621–1616) and 0.94% DMSO with inhibitor concentration varied from 0 to 10 µM. FAM fluorescence was measured in a Biotek Neo plate reader over the course of 45 minutes. A control containing GlaI in the absence of DNMT1 was subtracted from each assay condition. Corrected assay traces were fitted in Prism and percent activity was determined by comparing to a DMSO containing control. IC50 values were determined by fitting the percent activity data using a unity Hill slope in Prism.

[6] = tested on: Rgs6−/− mouse embryonic fibroblasts; set-up: method as in PMID 23995786; conditions: murine Rgs6−/− mouse embryonic fibroblasts; cited from earlier work
[7] = tested on: MCF-7 breast cancer cells; conditions: cited from earlier work
[8] = tested on: DNMT1; conditions: cited from earlier work

T3 sequence (P26358 621-1616): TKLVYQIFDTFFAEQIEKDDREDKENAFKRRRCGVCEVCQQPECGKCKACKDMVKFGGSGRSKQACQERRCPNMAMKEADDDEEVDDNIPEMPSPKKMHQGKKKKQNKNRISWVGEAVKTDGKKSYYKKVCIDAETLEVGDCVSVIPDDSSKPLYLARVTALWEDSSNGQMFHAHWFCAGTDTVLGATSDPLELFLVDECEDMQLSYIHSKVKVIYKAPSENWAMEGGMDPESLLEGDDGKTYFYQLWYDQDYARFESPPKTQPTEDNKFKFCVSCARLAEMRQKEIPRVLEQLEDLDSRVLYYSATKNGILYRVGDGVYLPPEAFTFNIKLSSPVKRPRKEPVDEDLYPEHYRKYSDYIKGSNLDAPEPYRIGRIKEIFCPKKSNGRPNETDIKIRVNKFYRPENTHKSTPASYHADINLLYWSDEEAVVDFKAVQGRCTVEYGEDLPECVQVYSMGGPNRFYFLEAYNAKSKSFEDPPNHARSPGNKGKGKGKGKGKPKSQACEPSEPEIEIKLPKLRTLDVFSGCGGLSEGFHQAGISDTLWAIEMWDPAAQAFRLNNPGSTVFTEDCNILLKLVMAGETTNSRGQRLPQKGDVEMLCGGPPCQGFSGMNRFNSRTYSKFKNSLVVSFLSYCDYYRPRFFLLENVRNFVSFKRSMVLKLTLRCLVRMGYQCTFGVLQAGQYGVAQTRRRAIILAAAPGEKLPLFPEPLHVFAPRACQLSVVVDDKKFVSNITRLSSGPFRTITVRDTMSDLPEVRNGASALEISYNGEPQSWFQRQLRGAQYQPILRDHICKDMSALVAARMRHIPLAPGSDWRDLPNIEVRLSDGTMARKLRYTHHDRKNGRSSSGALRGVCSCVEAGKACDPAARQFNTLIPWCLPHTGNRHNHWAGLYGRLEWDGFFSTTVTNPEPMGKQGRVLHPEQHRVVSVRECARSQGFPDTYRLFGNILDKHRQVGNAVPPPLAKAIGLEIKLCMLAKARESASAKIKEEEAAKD
T2 sequence (P15840 whole entry): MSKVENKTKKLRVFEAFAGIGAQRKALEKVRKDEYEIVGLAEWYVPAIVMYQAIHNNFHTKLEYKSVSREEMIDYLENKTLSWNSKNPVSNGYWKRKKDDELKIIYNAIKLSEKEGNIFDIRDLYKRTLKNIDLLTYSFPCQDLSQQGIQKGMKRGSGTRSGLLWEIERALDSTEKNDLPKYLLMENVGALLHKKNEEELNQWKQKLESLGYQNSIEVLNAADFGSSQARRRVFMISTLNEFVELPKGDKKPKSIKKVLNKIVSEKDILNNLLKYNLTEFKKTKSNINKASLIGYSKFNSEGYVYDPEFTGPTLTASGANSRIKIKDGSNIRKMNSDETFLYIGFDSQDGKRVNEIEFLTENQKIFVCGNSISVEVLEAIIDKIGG
T1 sequence (P26358 351-1616): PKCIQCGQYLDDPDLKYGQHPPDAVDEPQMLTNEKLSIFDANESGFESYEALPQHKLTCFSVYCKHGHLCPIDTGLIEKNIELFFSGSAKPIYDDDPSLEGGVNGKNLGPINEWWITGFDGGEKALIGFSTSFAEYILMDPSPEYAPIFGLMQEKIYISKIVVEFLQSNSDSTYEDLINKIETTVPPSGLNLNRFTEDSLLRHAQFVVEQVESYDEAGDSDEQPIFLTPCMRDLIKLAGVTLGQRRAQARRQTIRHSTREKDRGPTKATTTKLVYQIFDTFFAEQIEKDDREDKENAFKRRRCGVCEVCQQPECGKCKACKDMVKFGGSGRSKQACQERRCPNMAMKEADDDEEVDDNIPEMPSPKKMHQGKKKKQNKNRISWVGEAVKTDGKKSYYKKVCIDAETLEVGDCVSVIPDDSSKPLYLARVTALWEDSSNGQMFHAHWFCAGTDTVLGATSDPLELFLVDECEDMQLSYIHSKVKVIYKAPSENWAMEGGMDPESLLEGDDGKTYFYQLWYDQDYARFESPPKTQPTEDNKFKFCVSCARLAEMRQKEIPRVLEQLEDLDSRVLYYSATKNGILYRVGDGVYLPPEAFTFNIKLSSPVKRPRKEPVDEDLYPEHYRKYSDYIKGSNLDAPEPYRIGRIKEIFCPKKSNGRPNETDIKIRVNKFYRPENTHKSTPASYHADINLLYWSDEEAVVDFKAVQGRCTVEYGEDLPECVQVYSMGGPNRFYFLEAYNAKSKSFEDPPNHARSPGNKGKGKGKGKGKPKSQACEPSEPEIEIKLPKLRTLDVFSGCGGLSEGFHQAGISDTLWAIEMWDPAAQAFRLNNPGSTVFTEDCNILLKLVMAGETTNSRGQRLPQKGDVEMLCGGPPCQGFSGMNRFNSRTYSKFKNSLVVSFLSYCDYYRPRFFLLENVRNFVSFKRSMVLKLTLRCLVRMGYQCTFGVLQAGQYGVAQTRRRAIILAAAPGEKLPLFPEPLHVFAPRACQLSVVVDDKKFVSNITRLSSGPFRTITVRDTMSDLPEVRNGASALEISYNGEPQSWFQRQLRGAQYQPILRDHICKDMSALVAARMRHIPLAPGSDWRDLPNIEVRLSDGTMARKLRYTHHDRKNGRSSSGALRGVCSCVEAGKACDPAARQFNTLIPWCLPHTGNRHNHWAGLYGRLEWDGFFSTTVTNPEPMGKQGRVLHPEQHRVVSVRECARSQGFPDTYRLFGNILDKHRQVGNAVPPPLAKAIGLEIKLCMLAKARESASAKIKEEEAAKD

SMILES	Percent activity, RFTS-containing Dnmt1 [1] [%]	RFU (ethidium bromide fluorescence) [2] [RFU]	remaining activity at 20 µM [3] [%]	levels of DNA methylation [4]	IC50 [5] [nM]	potency relative to alizarin (cmpd 26) ([5]; more potent than alizarin) [fold]	DNMT1-dependent oncogenic transformation and apoptosis [6]	expression of methylation-silenced genes [7]	mechanism of inhibition [8]
Oc1cc(Cl)ccc1Oc1ccc(Cl)cc1Cl [Cmpd 13, triclosan]	25±8	2406 ± 5	25 ± 4	reduced the levels of DNA methylation					
O=C(O)c1cc(O)c2c(c1)[C@@H]([C@H]1c3cc(C(=O)O)cc(O)c3C(=O)c3c(O[C@H]4O[C@H](CO)[C@@H](O)[C@H](O)[C@H]4O)cccc31)c1cccc(O[C@H]3O[C@H](CO)[C@@H](O)[C@H](O)[C@H]3O)c1C2=O [Cmpd 22]	40±10	2415 ± 150	20 ± 5		470				
CC1/C=C/C=C/C=C/C=C/C=C/C=C/C=C/C(O[C@@H]2O[C@H](C)[C@H](O)[C@@H](O)[C@@H]2N)CC(O)C(C(=O)O)C(O)CC(=O)CC(O)CC(O)CC(O)CC(=O)CCCC(=O)CC(=O)OC1C(C)CC(C)C(O)CC(=O)c1ccc(N)cc1 (some centres unmarked) [Cmpd 24]		2389 ± 64	49 ± 12		400				
O=C1c2ccccc2C(=O)c2c1ccc(O)c2O [Cmpd 26, alizarin]	51±10	2364 ± 30	68 ± 11						
CSc1nc2cc(Cl)c(Oc3cccc(Cl)c3Cl)cc2[nH]1 [Cmpd 29, triclabendazole]		2500 ± 144	19 ± 6						
O=c1c(O)c(-c2ccc(O)c(O)c2)oc2c(O)c(O)cc(O)c12 [Cmpd 33]	38±13	2524 ± 45	86 ± 9						
O=C(O)c1cc(O)c2c(c1)[C@@H]([C@@H]1c3cc(C(=O)O)cc(O)c3C(=O)c3c(O[C@H]4O[C@H](CO)[C@@H](O)[C@H](O)[C@H]4O)cccc31)c1cccc(O[C@H]3O[C@H](CO)[C@@H](O)[C@H](O)[C@H]3O)c1C2=O [Cmpd 36]	30±12	2309 ± 60	40 ± 7						
CC(=O)NCCc1ccc(O)c(-c2c(O)c(O)c3c(c2O)C(=O)c2c(cc(O)c(C(=O)O)c2C(=O)O)C3=O)c1 [Cmpd 40, Laccaic acid A]	21±9	2311 ± 148	82 ± 10			~5	reverses DNMT1-dependent oncogenic transformation and apoptosis	reactivates expression of a set of methylation-silenced genes	DNA-competitive inhibitor
O=C(O)C(S)C(S)C(=O)O (centres unmarked) [Cmpd 51]	24±11	2525 ± 200	36 ± 7						

Source: paper PMC3827244, “An Ultrasensitive High Throughput Screen for DNA Methyltransferase 1-Targeted Molecular Probes” (PLoS ONE, 2013)
